The source of these data is US6387241B1, “Method of sterilization using ozone” (priority 1993, dated 2002).

Read-outs that look alike come from different tables or passages of the source.

The assay concerns spores of Bacillus stearothermophilus and Bacillus subtilis var. niger (Duo-Spore paper spore strips).

`O=[O+][O-]` [ozone]: the “ozone exposure time to achieve overkill (100% of the spore strips sterilized)” value reads like this: ("flow through" mode, about 2 liters per minute, 10-12 wt% ozone) 60 min; ("pressure" mode, generator output 10-12 wt% ozone) 45 min; ("single fill" mode, static 10 wt% ozone) 90 min.
